What follows are molecules tested against T1, hCRTH2 receptor (Homo sapiens, UniProt Q9Y5Y4) (assay: Radioligand displacement assay (3H-PGD2) on hCRTH2 receptor membranes). Settings: antagonistic activity; 3H-PGD2 displacement on HEK293-hCRTH2 membrane fragments.
T1 construct: expressed in transfected cells; host or cells: HEK293
T1 sequence (Q9Y5Y4 1-395): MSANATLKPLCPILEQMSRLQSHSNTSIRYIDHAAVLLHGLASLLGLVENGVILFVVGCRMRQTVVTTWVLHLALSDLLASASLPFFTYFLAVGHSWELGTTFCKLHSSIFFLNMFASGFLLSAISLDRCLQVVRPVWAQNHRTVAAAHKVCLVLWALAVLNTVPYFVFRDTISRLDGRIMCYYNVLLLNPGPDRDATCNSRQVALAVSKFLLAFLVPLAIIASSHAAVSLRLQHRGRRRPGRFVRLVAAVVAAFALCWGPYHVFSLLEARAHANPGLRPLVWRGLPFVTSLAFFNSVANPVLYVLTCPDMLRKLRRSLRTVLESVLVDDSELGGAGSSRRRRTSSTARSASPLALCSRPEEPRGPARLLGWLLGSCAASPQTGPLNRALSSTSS
Format: binding

| Structure (SMILES) | IC50 [nM] |
| --- | --- |
| O=C(O)COc1ccc(F)cc1C1c2ccccc2CCN1C(=O)CCc1ccccc1Cl (racemic) [Example 131, (±)-(2-{2-[3-(2-Chloro-phenyl)-propionyl]-1,2,3,4-tetrahydro-isoquinolin-1-yl}-4-fluoro-phenoxy)-acetic acid] | 48 |
| O=C(O)COc1ccc(F)cc1C1c2ccccc2CCN1C(=O)CCc1ccc(Cl)cc1 (racemic) [Example 133, (±)-(2-{2-[3-(4-Chloro-phenyl)-propionyl]-1,2,3,4-tetrahydro-isoquinolin-1-yl}-4-fluoro-phenoxy)-acetic acid] | 126 |
| O=C(O)COc1ccc(F)cc1C1c2ccccc2CCN1C(=O)Cc1ccc2ccccc2c1 (racemic) [Example 135, (±)-{4-Fluoro-2-[2-(2-naphthalen-2-yl-acetyl)-1,2,3,4-tetrahydro-isoquinolin-1-yl]-phenoxy}-acetic acid] | 42.2 |
| Cc1ccccc1OCC(=O)N1CCc2ccccc2C1c1cc(F)ccc1OCC(=O)O (racemic) [Example 136, (±)-{4-Fluoro-2-[2-(2-o-tolyloxy-acetyl)-1,2,3,4-tetrahydro-isoquinolin-1-yl]-phenoxy}-acetic acid] | 119 |
| Cn1cc(CC(=O)N2CCc3ccccc3C2c2cc(F)ccc2OCC(=O)O)c2ccccc21 (racemic) [Example 137, (±)-(4-Fluoro-2-{2-[2-(1-methyl-1H-indol-3-yl)-acetyl]-1,2,3,4-tetrahydro-isoquinolin-1-yl}-phenoxy)-acetic acid] | 314 |
| O=C(O)COc1ccc(F)cc1C1c2ccccc2CCN1C(=O)CCc1ccccc1F (racemic) [Example 139, (±)-(4-Fluoro-2-{2-[3-(2-fluoro-phenyl)-propionyl]-1,2,3,4-tetrahydro-isoquinolin-1-yl}-phenoxy)-acetic acid] | 233 |
| Cc1ccccc1/C=C/C(=O)N1CCc2ccccc2C1c1cc(F)ccc1OCC(=O)O (racemic) [Example 142, (±)-{4-Fluoro-2-[2-((E)-3-o-tolyl-acryloyl)-1,2,3,4-tetrahydro-isoquinolin-1-yl]-phenoxy}-acetic acid] | 349 |
| O=C(O)COc1ccc(F)cc1C1c2ccccc2CCN1C(=O)CCOc1ccccc1 (racemic) [Example 144, (±)-{4-Fluoro-2-[2-(3-phenoxy-propionyl)-1,2,3,4-tetrahydro-isoquinolin-1-yl]-phenoxy}-acetic acid] | 73.9 |
| CS(=O)(=O)c1ccc(CCC(=O)N2CCc3ccccc3C2c2cc(F)ccc2OCC(=O)O)cc1 (racemic) [Example 145, (±)-(4-Fluoro-2-{2-[3-(4-methanesulfonyl-phenyl)-propionyl]-1,2,3,4-tetrahydro-isoquinolin-1-yl}-phenoxy)-acetic acid] | 983 |
| Cc1ccccc1OCCC(=O)N1CCc2ccccc2C1c1cc(F)ccc1OCC(=O)O (racemic) [Example 147, (±)-{4-Fluoro-2-[2-(3-o-tolyloxy-propionyl)-1,2,3,4-tetrahydro-isoquinolin-1-yl]-phenoxy}-acetic acid] | 57.6 |
| O=C(O)COc1ccc(F)cc1C1c2ccccc2CCN1C(=O)COc1ccccc1F (racemic) [Example 148, (±)-(4-Fluoro-2-{2-[2-(2-fluoro-phenoxy)-acetyl]-1,2,3,4-tetrahydro-isoquinolin-1-yl}-phenoxy)-acetic acid] | 132 |
| COc1ccccc1CCCC(=O)N1CCc2ccccc2C1c1cc(F)ccc1OCC(=O)O (racemic) [Example 149, (±)-(4-Fluoro-2-{2-[4-(2-methoxy-phenyl)-butyryl]-1,2,3,4-tetrahydro-isoquinolin-1-yl}-phenoxy)-acetic acid] | 42.7 |
| O=C(O)COc1ccc(F)cc1C1c2ccccc2CCN1C(=O)COCc1ccccc1Cl (racemic) [Example 150] | 6.16 |
| O=C(O)COc1ccc(Cl)cc1C1c2ccccc2CCN1C(=O)[C@@H]1C[C@H]1c1ccc(Cl)cc1Cl (mixture of isomers) [Example 158] | 37.6 |
| COc1ccccc1[C@@H]1C[C@H]1C(=O)N1CCc2ccccc2C1c1cc(Cl)ccc1OCC(=O)O (mixture of isomers) [Example 159] | 21.2 |
| O=C(O)COc1ccc(Cl)cc1C1c2ccccc2CCN1C(=O)[C@@H]1C[C@H]1c1ccccc1F (mixture of isomers) [Example 160] | 16.4 |
| O=C(O)COc1ccc(Cl)cc1C1c2ccccc2CCN1C(=O)CCc1cnnn1-c1ccccc1 (racemic) [Example 161] | 116 |
| O=C(O)COc1ccc(F)cc1C1c2ccc(F)cc2CCN1C(=O)OCc1ccccc1 (racemic) [Example 163] | 4.21 |
| O=C(O)COc1ccc(Cl)cc1C1c2ccccc2CCN1C(=O)OCc1ccccc1Cl (racemic) [Example 164] | 0.94 |
| O=C(O)COc1ccc(F)cc1C1c2ccccc2CCN1C(=O)OCc1ccccc1Cl (racemic) [Example 165] | 5 |
| CC(C)(C)COC(=O)N1CCc2ccccc2C1c1cc(F)ccc1OCC(=O)O (racemic) [Example 166] | 120 |
| CCCCOC(=O)N1CCc2ccccc2C1c1cc(F)ccc1OCC(=O)O (racemic) [Example 167] | 42 |
| O=C(O)COc1ccc(F)cc1C1c2ccccc2CCN1C(=O)Oc1ccccc1 (racemic) [Example 169] | 451 |
| CC(C)COC(=O)N1CCc2ccccc2C1c1cc(F)ccc1OCC(=O)O (racemic) [Example 171] | 47.7 |
| COCCOC(=O)N1CCc2ccccc2C1c1cc(F)ccc1OCC(=O)O (racemic) [Example 172] | 59.8 |
| O=C(O)COc1ccc(Cl)cc1C1c2cccc(F)c2CCN1C(=O)OCc1ccccc1Cl (racemic) [Example 175] | 8.75 |
| O=C(O)COc1ccc(Cl)cc1C1c2ccccc2CCN1C(=O)OCCc1ccccc1Cl (racemic) [Example 176, (±)-1-(2-Carboxymethoxy-5-chloro-phenyl)-3,4-dihydro-1H-isoquinoline-2-carboxylic acid 2-(2-chloro-phenyl)-ethyl ester] | 10.4 |
| O=C(O)COc1ccc(F)cc1C1c2ccccc2CCN1C(=O)Oc1cccc(Cl)c1 (racemic) [Example 178, (±)-1-(2-Carboxymethoxy-5-fluoro-phenyl)-3,4-dihydro-1H-isoquinoline-2-carboxylic acid 3-chloro-phenyl ester] | 687 |

Further lines, results first:

| IC50 [nM] | Structure (SMILES) |
| --- | --- |
| 270 | COc1ccc(CCC(=O)N2CCc3ccccc3C2c2cc(F)ccc2OCC(=O)O)cc1 (racemic) [Example 130, (±)-(4-Fluoro-2-{2-[3-(4-methoxy-phenyl)-propionyl]-1,2,3,4-tetrahydro-isoquinolin-1-yl}-phenoxy)-acetic acid] |
| 86 | O=C(O)COc1ccc(F)cc1C1c2ccccc2CCN1C(=O)CCc1cccc(Cl)c1 (racemic) [Example 132, (±)-(2-{2-[3-(3-Chloro-phenyl)-propionyl]-1,2,3,4-tetrahydro-isoquinolin-1-yl}-4-fluoro-phenoxy)-acetic acid] |
| 31 | Cc1ccccc1CCC(=O)N1CCc2ccccc2C1c1cc(F)ccc1OCC(=O)O (racemic) [Example 134, (±)-{4-Fluoro-2-[2-(3-o-tolyl-propionyl)-1,2,3,4-tetrahydro-isoquinolin-1-yl]-phenoxy}-acetic acid] |
| 101 | O=C(O)COc1ccc(F)cc1C1c2ccccc2CCN1C(=O)COc1ccccc1Cl (racemic) [Example 138, (±)-(2-{2-[2-(2-Chloro-phenoxy)-acetyl]-1,2,3,4-tetrahydro-isoquinolin-1-yl}-4-fluoro-phenoxy)-acetic acid] |
| 36.4 | O=C(O)COc1ccc(F)cc1C1c2ccccc2CCN1C(=O)CC1Cc2ccccc2C1 (racemic) [Example 140, (±)-{4-Fluoro-2-[2-(2-indan-2-yl-acetyl)-1,2,3,4-tetrahydro-isoquinolin-1-yl]-phenoxy}-acetic acid] |
| 835 | O=C(O)COc1ccc(F)cc1C1c2ccccc2CCN1C(=O)/C=C/c1ccccc1F (racemic) [Example 141, (±)-(4-Fluoro-2-{2-[(E)-3-(2-fluoro-phenyl)-acryloyl]-1,2,3,4-tetrahydro-isoquinolin-1-yl}-phenoxy)-acetic acid] |
| 395 | O=C(O)COc1ccc(F)cc1C1c2ccccc2CCN1C(=O)CCCCc1ccccc1 (racemic) [Example 143, (±)-{4-Fluoro-2-[2-(5-phenyl-pentanoyl)-1,2,3,4-tetrahydro-isoquinolin-1-yl]-phenoxy}-acetic acid] |
| 61.3 | O=C(O)COc1ccc(F)cc1C1c2ccccc2CCN1C(=O)CCN1CCc2ccccc21 (racemic) [Example 146, (±)-{2-[2-(3-2,3-Dihydro-indol-1-yl-propionyl)-1,2,3,4-tetrahydro-isoquinolin-1-yl]-4-fluoro-phenoxy}-acetic acid] |
| 45.3 | O=C(O)COc1ccc(Cl)cc1C1c2ccccc2CCN1C(=O)[C@@H]1C[C@H]1c1ccc(Cl)cc1 (mixture of isomers) [Example 157] |
| 115 | O=C(O)COc1ccc(Cl)cc1C1c2ccccc2CCN1C(=O)CSc1cnnn1-c1ccccc1 (racemic) [Example 162] |
| 109 | COc1ccccc1OC(=O)N1CCc2ccccc2C1c1cc(F)ccc1OCC(=O)O (racemic) [Example 168] |
| 169 | O=C(O)COc1ccc(F)cc1C1c2ccccc2CCN1C(=O)Oc1ccccc1Cl (racemic) [Example 170] |
| 102 | COc1ccc(OC(=O)N2CCc3ccccc3C2c2cc(F)ccc2OCC(=O)O)cc1 (racemic) [Example 173] |
| 27.5 | O=C(O)COc1ccc(F)cc1C1c2ccccc2CCN1C(=O)OCCc1ccccc1Cl (racemic) [Example 177, (±)-1-(2-Carboxymethoxy-5-fluoro-phenyl)-3,4-dihydro-1H-isoquinoline-2-carboxylic acid 2-(2-chloro-phenyl)-ethyl ester] |

Reference: patent publication US8575158B2, “1-phenyl-substituted heterocyclyl derivatives and their use as prostaglandin D2 receptor modulators” (Actelion Pharmaceuticals Ltd., priority 2010, dated 2013)
